Reference: US12190997B2, “Genetically altered LysM receptors with altered agonist specificity and affinity” (Aarhus Universitet, priority 2018, dated 2025)

Legend:
[1] = target: LjLYS11 ectodomain (Lotus japonicus, UniProt D3KTZ8); assay: BLI binding of LjLYS11 ectodomain to ligands; settings: FIG. 15C
Procedure: LjLYS11 ectodomain production and purification: The LjLYS11 ectodomain (residues 26-234; SEQ ID NO:60) was codon-optimized for insect cell expression (Genscript, Piscataway, USA) and cloned into the pOET4 baculovirus transfer vector (Oxford Expression Technologies). The native LjLYS11 signal peptide was replaced with the gp64 signal peptide (SEQ ID NO:59) to facilitate secretion and a hexa-histidine (6×His; SEQ ID NO:61) tag was added to the C-terminus (LjLYS11-ecto (26-234), N-term gp64, C-term 6His=SEQ ID NO:56). Recombinant baculoviruses were produced in Sf9 cells (Spodoptera frugiperda) using the FlashBac Gold kit (Oxford Expression technologies) according to the manufacturer's instructions with Lipofectin (ThermoFisher Scientific) as a transfection reagent. Protein expression was performed as follows. […]
Biolayer interferometry (BLI): Binding of LjLYS11 ectodomain and domain-swapped versions of LjLYS11 ectodomain to ligands was measured on an Octet RED 96 system (Pall ForteBio). […] Equilibrium dissociation constants derived from the steady-state were determined by applying a non-linear regression (one site, specific binding) to the response at equilibrium plotted against the protein concentration. Kinetic parameters were determined by non-linear regression (association followed by dissociation) on the subtracted data. […]

[2] = system: ectodomain where LysM2 from LjLYS11 was replaced with LysM2 from LjNFR5; assay: BLI binding of LjLYS11 ectodomain with LysM2 replaced by LysM2 from LjNFR5; parameters: species or system Lotus japonicus; settings: FIG. 15D
Procedure: Biolayer interferometry (BLI): Binding of LjLYS11 ectodomain and domain-swapped versions of LjLYS11 ectodomain to ligands was measured on an Octet RED 96 system (Pall ForteBio). The ligands used were CO5 chitin oligomer (corresponding to the backbone of S. meliloti LCO-V), M. loti LCO, and S. meliloti LCO. S. meliloti LCO consists of a tetrameric/pentameric N-acetylglucosamine backbone that is O-sulfated on the reducing terminal residue, O-acetylated on the non-reducing terminal residue, and mono-N-acylated by unsaturated C16 acyl groups. M. loti LCO is a pentameric N-acetylglucosamine with a cis-vaccenic acid and a carbamoyl group at the non-reducing terminal residue together with a 2,4-O-acetylfucose at the reducing terminal residue. Biotinylated ligand conjugates were immobilized on streptavidin biosensors (kinetic quality, Pall ForteBio) at a concentration of 125-250 nM for 5 minutes. Data analysis was performed in GraphPad Prism 6 software (GraphPad Software, Inc.). Equilibrium dissociation constants derived from the steady-state were determined by applying a non-linear regression (one site, specific binding) to the response at equilibrium plotted against the protein concentration. Kinetic parameters were determined by non-linear regression (association followed by dissociation) on the subtracted data. […]

[3] = system: HvRLK10 ectodomain; assay: BLI binding of HvRLK10 ectodomain to ligands; parameters: species or system Hordeum vulgare; settings: FIGS. 16A, 16C-16D
Procedure: (§1) Expression and purification of ectodomain: The HvRLK10 ectodomain (residues 25-231; SEQ ID NO:66) was codon-optimized for insect cell expression (Genscript, Piscataway, USA) and cloned into the pOET4 baculovirus transfer vector (Oxford Expression Technologies). The native HvRLK10 signal peptide was replaced with the gp64 signal peptide (SEQ ID NO:59) to facilitate secretion and a hexa-histidine (6×HIS; SEQ ID NO:61) tag was added to the C-terminus (HvRLK10-ecto (25-231), N-term gp64, C-term 6His=SEQ ID NO:65). The HvRLK4 ectodomain (residues 27-228; SEQ ID NO:68) was codon-optimized for insect cell expression (Genscript, Piscataway, USA) and cloned into the pOET4 baculovirus transfer vector (Oxford Expression Technologies). […]
(§2) Biolayer interferometry (BLI): Binding of HvRLK10 ectodomain or HvRLK4 ectodomain to ligands was measured on an Octet RED 96 system (Pall ForteBio). […] Equilibrium dissociation constants derived from the steady-state were determined by applying a non-linear regression (one site, specific binding) to the response at equilibrium plotted against the protein concentration. Kinetic parameters were determined by non-linear regression (association followed by dissociation) on the subtracted data.

[4] = system: HvRLK4 ectodomain; assay: BLI binding of HvRLK4 ectodomain to ligands; parameters: species or system Hordeum vulgare; settings: FIGS. 16E, 16G-16H
Procedure: as §1, §2

Sequence of LjLYS11 ectodomain (D3KTZ8 entry or part of it): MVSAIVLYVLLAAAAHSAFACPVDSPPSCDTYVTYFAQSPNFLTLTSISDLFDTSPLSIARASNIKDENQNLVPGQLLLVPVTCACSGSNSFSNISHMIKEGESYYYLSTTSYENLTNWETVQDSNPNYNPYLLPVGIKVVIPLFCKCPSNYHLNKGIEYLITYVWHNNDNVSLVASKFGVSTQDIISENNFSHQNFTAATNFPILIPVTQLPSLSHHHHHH

## CC(=O)N[C@H]1[C@H](O[C@H]2[C@H](O)[C@@H](NC(C)=O)[C@H](O[C@H]3[C@H](O)[C@@H](NC(C)=O)C(O)O[C@@H]3CO)O[C@@H]2CO)O[C@H](CO)[C@@H](O[C@@H]2O[C@H](CO)[C@@H](O[C@@H]3O[C@H](CO)[C@@H](O)[C@H](O)[C@H]3NC(C)=O)[C@H](O)[C@H]2NC(C)=O)[C@@H]1O (stereo partly shown) [CO5]
[1]
  binding: able to bind
[2]
  binding compared with unmodified LjLYS11 ectodomain: loss of ability to bind
[3]
  binding: did not bind
[4]
  binding: did not bind
